The source of these data is US20200399238A1, “THERAPEUTIC AURONES” (MIDDLE TENNESSEE STATE UNIVERSITY, priority 2016, published 2020).

Where two headings read alike, the source gives them in different places.

Test [1] concerns C. albicans (ATCC strain 90028). Nature of the test: Antifungal microdilution broth assay (PrestoBlue), C. albicans. In kind it is cell-based, Candida albicans. The settings on record: Candida albicans. In a few lines: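 Inoculum of 1.5×10^3 cells/mL in RPMI-MOPS (0.165 M MOPS, pH 7.0), exposed to aurones for 24 h at 35 °C. Growth read by PrestoBlue (10% final) fluorescence at ex 560/em 590 nm.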

In the next test the test system is p65 (NF-κB). Nature of the test: Indirect immunofluorescence for NF-κB nuclear translocation, THP-1. In kind it is cell-based, human. The settings on record: pre-treatment with 50 aurone 1; THP-1, LPS 30 min. An excerpt: Bay 11-7082 is a compound that inhibits LPS-induced activation of IKKα/β, thereby suppressing downstream IκBα phosphorylation/degradation and p65 nuclear translocation and was used as a positive control (Catalan, Fernandez-Castillejo et al. 2012). Treated cells were fixed, permeabilized, blocked, and stained with p65 (NF-κB) primary antibody, Dylight 488 conjugated secondary antibody, and Hoechst 33342 dye, sequentially. The Hoechst and DyLight fluorophores detect changes in nuclear morphology (blue fluorescence) and NF-κB distribution (green fluorescence), respectively. Nuclear Translocation Bioapplication software on the Arrayscan VTI reader was used for image acquisition and data analysis (Thermo Fisher Scientific, Waltham, Mass., USA). For each well, at least 400 cells were automatically acquired and analyzed. The translocation index was calculated by measuring the average intensity difference of NF-κB between the identified cytoplasmic region and nuclear region.

A further test has as its system NF-κB-dependent promoter. Kind of test: pNF-κB-Luc luciferase assay, RAW 264.7. In kind it is cell-based, murine. The settings on record: 50 μM, 1 h pre-treatment, LPS 6 h, RAW264.7. Here is the method:
Cells were lysed in 250 μl/well of luminometry lysis buffer [25 mM Tris-phosphate, 1%(w/v) BSA, 0.025%(w/v) dithiothreitol (DTT), 1% Triton X-100, 15%(v/v) glycerol, 0.1 mM EDTA, 8 mM MgCl2, 1× protease inhibitor cocktail, and 1 mM phenylmethylsulfonyl fluoride] and incubated on a shaking table at 200 rpm for 15 min. A volume of 10 μl of 25 mM ATP was added to each well, and the samples were transferred in duplicates of 100 μl to an opaque-white 96-well plate. A volume of 20 μl of 10 mM sodium pyrophosphate was added to each well prior to the addition of 100 μl of 2 mM D-luciferin. Luminescence was quantified using a SpectraMax M5 plate reader using SoftMax Pro 6.3 software (Molecular Devices, Sunnyvale, Calif., USA).

Test [2] concerns p65-EGFP / TNFα promoter mCherry reporter. Kind of test: Live cell imaging of RAW 264.7 dual reporter cells (p65-EGFP, TNFα promoter mCherry). In kind it is cell-based, murine. Particulars: 50 μM pre-treatment. Here is the method: Cells were maintained at 37° C. with 5% CO2 in a humidified atmosphere during imaging. EGFP and mCherry fluorescence were imaged using FITC and Cy3 filters, respectively. Nikon Elements Software (Nikon. USA) was used for microscope control and image capture. Post-acquisition, images were analyzed using Fiji (Schindelin, Arganda-Carreras et al. 2012). Images were background subtracted and cytoplasmic:nuclear p65-EGFP and whole cell mCherry fluorescence were quantified for individual cells at each time point.

Another test has as its system iNOS. Nature of the test: Western blot, iNOS expression, RAW 264.7. The settings on record: LPS-stimulated RAW264.7, 24 h.
Test [3] has as its system ERK, JNK, p38. Nature of the test: Western blot, MAPK phosphorylation, THP-1. Particulars: LPS 15 min.
Procedure: (§2) U0126 is a compound that inhibits MEK1/2 and was used as positive control for ERK phosphorylation inhibition (Hotokezaka, Sakai et al. 2002). Cells were lysed with radio-immunoprecipitation assay (RIPA) lysis buffer that contained a protease and phosphatase inhibitor cocktail. Cell lysates were then tested for protein concentration using a BCA protein assay and diluted with RIPA lysis buffer to normalize protein concentration in all samples. Lysates were mixed with sample loading buffer containing bromophenol blue, glycerol, SDS, and 2-mercaptoethanol. The separated proteins were then transferred onto a nitrocellulose membrane and blocked with 5% BSA in IX Tris-buffered saline with 0.1% Tween-20 for 1 h. The blots were incubated with primary antibodies at 4° C. overnight followed by incubation with HRP-conjugated secondary antibodies for 2 h at 22° C. The membranes were developed by addition of ECL substrate and images were collected with a ChemiDoc XRS+ system chemiluminescence imager (Bio-Rad, Hercules, Calif., USA). Western blot band intensity was quantified using Image Lab software (Bio-Rad, Hercules, Calif., USA). […]
The next test concerns IL-8. Nature of the test: Cytokine response by ELISA, IL-8. The class given is cell-based, human. The settings on record: LPS-stimulated THP-1, ELISA. How it is done:
(§1) Dexamethasone is a synthetic glucocorticoid that suppresses LPS-induced pro-inflammatory cytokine expression and was used as a control (Abraham, Lawrence et al. 2006). Supernatants were collected for human cytokine ELISAs and the manufacturer's protocol was followed to assess the cytokine response. Cells remaining after the supernatant collection were tested for relative viability by Alamar Blue cytotoxicity assay as previously described.

In a further test the test system is TNFα. Nature of the test: Cytokine response by ELISA, TNFα. In kind it is cell-based, human. How it is done: as §1
Test [4] relates to ERK, JNK, p38. Kind of test: Western blot, MAPK phosphorylation, RAW 264.7. Particulars: RAW264.7; LPS 15 min.
Procedure: as §2

Procedure for iNOS: as §2

Regarding `COc1ccc(/C=C2\Oc3c(ccc(O)c3O)C2=O)cc1O` [Aurone 1009, (Z)-6,7-dihydroxy-2-(3-hydroxy-4-methoxybenzylidene)benzofuran-3(2H)-one], the IC50 is 16 µM in [1] (ATCC90028, Table 5, read-out: IC50 C. albicans); 10 to 18 µM in test [1] (ATCC90028, across C. albicans, C. glabrata, and C. tropicalis, read-out: IC50 values against Candida species).

On to `O=C1/C(=C/c2ccc(CO)o2)Oc2ccccc21` [aurone 1], for which the “cytoplasmic-to-nuclear translocation of p65” value in the test on p65 (NF-κB) is “capable of blocking cytoplasmic-to-nuclear translocation of p65”. Besides, the “LPS-induced luciferase expression (pNF-κB-Luc)” value in the test on NF-κB-dependent promoter is reported as “significantly inhibit LPS-induced luciferase expression”. Further, in test [2], the “expression of mCherry (TNFα promoter reporter)” value is “smaller fold-change in the expression of mCherry”. The “nuclear translocation of p65-EGFP post-LPS” value in test [2] was “diminished”. The figures for the “reduction in iNOS levels” value in the test with iNOS (50 μM) and with iNOS (100 μM) were 31.7% and 57.5%, respectively. In addition, the “phosphorylation of ERK, JNK, or p38” value in the test with ERK, JNK, p38 [3] is given as “no statistically significant effect”; in the test with ERK, JNK, p38 [4], “no statistically significant effect”. Further, in the test with IL-8, the “reduction of IL-8 expression” value is 71%. Further, the inhibition at 20 µM in the test on TNFα (Homo sapiens, LPS-stimulated THP-1 cells, 20 μM, mean ± SD, read-out: Average % TNF-α Inhibition) amounted to 25.3 ± 6.1%. Moreover, the “suppression of TNFα expression” value in the test with TNFα (LPS-stimulated THP-1, ELISA, FIG. 9A, concentration not printed with the value (20-80 μM tested)) stood at 93.8%.
